Laboratory results from patent US20240108601A1, “TREATMENT OF MENTAL DISORDERS” (GH Research Ireland Limited, priority 2022, published 2024).
Where two headings read alike, the source gives them in different places.

Tests used:
human hepatocytes = assay: Metabolite identification in human hepatocyte suspension; settings: 5-MeO-DMT free base 10 μM, incubated up to 120 minutes
Procedure: For incubations with cryopreserved hepatocytes, the 2 mM stock solution was diluted with Leibovitz L-15 medium to a concentration of 20 μM or 2 μM. An aliquot (250 μL) of the 20 μM and 2 μM test substance formulations was added to each hepatocyte incubation sample (250 μL), as appropriate, so that the final test substance concentration in the incubations was 10 μM or 1 μM, respectively, and incubations contained less than 1% (v/v) solvent.
Incubations were performed at ca. 37° C. in a shaking water bath (total incubation volume 0.5 mL). For 1 μM, incubations were terminated after 0, 5, 10, 20, 30, 60 and 120 minutes, by the addition of ice-cold acetonitrile (0.5 mL).
The samples were vortex mixed and centrifuged at ca 13,000 rpm for 10 minutes at room temperature. Following centrifugation, the protein-free supernatants were removed for analysis.
Blank control incubations were carried out with Leibovitz L-15 medium in place of the test substance. No cells control samples were performed with Leibovitz L-15 medium in place of hepatocytes. Aliquots of the blank control samples were taken at 120 minutes, while no cells control samples were taken at 0, 30 and 120 for 1 μM incubations and at 0 and 120 minutes for 10 μM incubations.
All 1 μM incubations were performed in duplicate, while all 10 μM incubations were performed in singlet. All samples were stored at −80° C. (nominal) prior to analysis.
Prior to sample analysis a 100 μL aliquot of each sample was evaporated to near dryness under a steady stream of nitrogen at room temperature, and subsequently reconstituted in 50 μL of mobile phase A (0.1% formic acid in water). Each sample (0, 30 and 120-minute, 10 μM) was analysed using accurate mass LC-MS to determine relative levels of parent compound at each time-point, and determine the profile of metabolites formed. Appropriate blank and control samples were also analysed. The 10 and 60-minute, 10 μM incubation samples were not analysed and were stored at −80° C. (nominal). […]

[1] = LC-MS/MS of 5-MeO-DMT, bufotenine and 5-MIAA in urine, serum and breastmilk of lactating PPD patient; infant exposure estimates; settings: for Breastmilk concentration / Serum concentration / Urine concentration: second patient
Excerpt: When determining the potential impact of maternal drug administration on a breastfed infant, it is standard practice to calculate the Relative Infant Dose (RID) (Bennett, P. N., and L. J. Notarianni. “Risk from drugs in breast milk: an analysis by relative dose.” Br J Clin Pharmacol 42.5 (1996): P673-4). The RID is the dosage (in μg/kg/day) the infant is exposed to by the intake of breast milk, divided by the dosage (in μg/kg/day) the mother receives.
Using estimates for daily intake of breast milk and the number of feeds as well as the measured breast milk concentrations the exposure of the infant can be determined.
For example, a published estimate for daily intake of breast milk as a function of infant weight is 150 ml/kg/day. To model the exposure, it is assumed that an infant of 5 kg is fed three times over 24 hours, receiving 250 ml breast milk each time.
The second patient was lactating, and, per the clinical trial protocol, breastmilk samples were collected pre-dosing and at multiple timepoints after administration of the last dose. […] Similar analyses were carried out on patient serum and urine samples.

[2] = Pharmacokinetics of 5-MeO-DMT and bufotenine after single inhaled dose; assay type: in vivo, human; settings: from 15 min onwards after 5-MeO-DMT inhalation; LLOQ
Procedure: Blood samples were obtained at 1; 2; 4; 7; 10; 15; 20; 30; 45 min and 1; 1.5; 2; 3; 4 hours after administration.
PK parameters were generated by algebraic analysis of the concentration versus time plots for each individual. The analysis was carried out using the software Phoenix WinNonlin 6.3.

human plasma protein = assay: Plasma binding of 5-MIAA; assay type: in vitro ADME
Procedure: (§1) Binding to human plasma protein was determined. Reported are the unbound fraction (fu) for three replicates as well as the mean unbound fraction, the standard deviation and the mean % recovery (Table 8).

[3] = system: human hepatocytes (Hμrel HumanPool co-culture); assay: Metabolic stability in Hμrel human hepatocyte co-culture
Plasma binding of 5-MIAA = assay type: in vitro ADME; settings: for fraction unbound: human, plasma
Procedure: as §1

[4] = 5 kg infant, three feeds of 250 ml

Row | Compound | Relative Proportion of compounds identified (human hepatocytes) [%] | Breastmilk concentration ([1]; 1.0 hrs after last dose) | Serum concentration ([1]; 1.0 hrs after last dose) | Breastmilk concentration ([1]; 2.5 hrs after last dose) | Serum concentration ([1]; 2.5 hrs after last dose) | Breastmilk concentration ([1]; 8.5 hrs after last dose) | Urine concentration ([1]; 8.5 hrs after last dose) | Breastmilk concentration ([1]; 24.0 hrs after last dose) | Serum concentration ([1]; 24.0 hrs after last dose) | Urine concentration ([1]; 24.0 hrs after last dose) | Breastmilk concentration ([1]; 120.0 hrs after last dose) | Serum concentration ([1]; 120.0 hrs after last dose) | Urine concentration ([1]; 120.0 hrs after last dose) | Breastmilk concentration ([1]; −24.0 hrs (pre-dosing)) | Serum concentration ([1]; −24.0 hrs (pre-dosing)) | Urine concentration ([1]; −24.0 hrs (pre-dosing)) | further results
1 | CN(C)CCc1c[nH]c2ccc(O)cc12 [Bufotenine] | 5 | BLQ (Below limit of quantification. The lower limit of quantification is 25 pg/ml for both 5-MeO-DMT and 5-MIAA in both serum and breastmilk; it is 25 pg/ml in urine for 5-MeO-DMT and 250 pg/ml for 5-MIAA in urine.) | BLQ (Below limit of quantification. The lower limit of quantification is 25 pg/ml for both 5-MeO-DMT and 5-MIAA in both serum and breastmilk; it is 25 pg/ml in urine for 5-MeO-DMT and 250 pg/ml for 5-MIAA in urine.) | BLQ (Below limit of quantification. The lower limit of quantification is 25 pg/ml for both 5-MeO-DMT and 5-MIAA in both serum and breastmilk; it is 25 pg/ml in urine for 5-MeO-DMT and 250 pg/ml for 5-MIAA in urine.) | BLQ (Below limit of quantification. The lower limit of quantification is 25 pg/ml for both 5-MeO-DMT and 5-MIAA in both serum and breastmilk; it is 25 pg/ml in urine for 5-MeO-DMT and 250 pg/ml for 5-MIAA in urine.) | BLQ (Below limit of quantification. The lower limit of quantification is 25 pg/ml for both 5-MeO-DMT and 5-MIAA in both serum and breastmilk; it is 25 pg/ml in urine for 5-MeO-DMT and 250 pg/ml for 5-MIAA in urine.) | BLQ (Below limit of quantification. The lower limit of quantification is 25 pg/ml for both 5-MeO-DMT and 5-MIAA in both serum and breastmilk; it is 25 pg/ml in urine for 5-MeO-DMT and 250 pg/ml for 5-MIAA in urine.) | BLQ (Below limit of quantification. The lower limit of quantification is 25 pg/ml for both 5-MeO-DMT and 5-MIAA in both serum and breastmilk; it is 25 pg/ml in urine for 5-MeO-DMT and 250 pg/ml for 5-MIAA in urine.) | BLQ (Below limit of quantification. The lower limit of quantification is 25 pg/ml for both 5-MeO-DMT and 5-MIAA in both serum and breastmilk; it is 25 pg/ml in urine for 5-MeO-DMT and 250 pg/ml for 5-MIAA in urine.) | BLQ (Below limit of quantification. The lower limit of quantification is 25 pg/ml for both 5-MeO-DMT and 5-MIAA in both serum and breastmilk; it is 25 pg/ml in urine for 5-MeO-DMT and 250 pg/ml for 5-MIAA in urine.) | BLQ (Below limit of quantification. The lower limit of quantification is 25 pg/ml for both 5-MeO-DMT and 5-MIAA in both serum and breastmilk; it is 25 pg/ml in urine for 5-MeO-DMT and 250 pg/ml for 5-MIAA in urine.) | BLQ (Below limit of quantification. The lower limit of quantification is 25 pg/ml for both 5-MeO-DMT and 5-MIAA in both serum and breastmilk; it is 25 pg/ml in urine for 5-MeO-DMT and 250 pg/ml for 5-MIAA in urine.) | BLQ (Below limit of quantification. The lower limit of quantification is 25 pg/ml for both 5-MeO-DMT and 5-MIAA in both serum and breastmilk; it is 25 pg/ml in urine for 5-MeO-DMT and 250 pg/ml for 5-MIAA in urine.) | BLQ (Below limit of quantification. The lower limit of quantification is 25 pg/ml for both 5-MeO-DMT and 5-MIAA in both serum and breastmilk; it is 25 pg/ml in urine for 5-MeO-DMT and 250 pg/ml for 5-MIAA in urine.) | BLQ (Below limit of quantification. The lower limit of quantification is 25 pg/ml for both 5-MeO-DMT and 5-MIAA in both serum and breastmilk; it is 25 pg/ml in urine for 5-MeO-DMT and 250 pg/ml for 5-MIAA in urine.) | BLQ (Below limit of quantification. The lower limit of quantification is 25 pg/ml for both 5-MeO-DMT and 5-MIAA in both serum and breastmilk; it is 25 pg/ml in urine for 5-MeO-DMT and 250 pg/ml for 5-MIAA in urine.) | Blood concentration of metabolite bufotenine [2]: < 0.025 ng/mL
2 | 5-Methoxyindole acetic acid [5-MIAA] | – | 13945.2 pg/mL | 263.092 ng/mL | 13240.9 pg/mL | 101.9947 ng/mL | 359.4 pg/mL | 291651 pg/mL | 35.5 pg/mL | 0.2706 ng/mL | 18649 pg/mL | BLQ (Below limit of quantification. The lower limit of quantification is 25 pg/ml for both 5-MeO-DMT and 5-MIAA in both serum and breastmilk; it is 25 pg/ml in urine for 5-MeO-DMT and 250 pg/ml for 5-MIAA in urine.) | 0.0671 ng/mL | 9444 pg/mL | BLQ (Below limit of quantification. The lower limit of quantification is 25 pg/ml for both 5-MeO-DMT and 5-MIAA in both serum and breastmilk; it is 25 pg/ml in urine for 5-MeO-DMT and 250 pg/ml for 5-MIAA in urine.) | 0.051 ng/mL | 8113 pg/mL | Mean % Recovery (human plasma protein): 81.4%; Plasma binding (mean fraction unbound) (human plasma protein): ~50%; Unbound fraction (fu), Replicate 1 (human plasma protein): 0.499; Unbound fraction (fu), Replicate 2 (human plasma protein): 0.462; Unbound fraction (fu), Replicate 3 (human plasma protein): 0.544; Mean fu (human plasma protein; three replicates): 0.502; DID of 5-MIAA per kg [1, 4]: 0.001377 mg/kg/day; DID, total exposure of the infant to 5-MIAA [1, 4]: 0.006886 mg/day; Disappearance with stromal cell controls ([3]; 0-72 h): no disappearance; Remaining abundance after 72h ([3]; hepatocytes, 1 and 10 μM): 75-82%; In vitro intrinsic clearance ([3]; human hepatocytes, 1 μM): 0.15 μl/min/million cells
3 | COc1ccc2[nH]cc(CC[N+](C)(C)[O-])c2c1 [5-MeO-DMT-N-oxide] | 1 | – | – | – | – | – | – | – | – | – | – | – | – | – | – | – | –
4 | CC(=O)CC(c1ccccc1)c1c(O)c2ccccc2oc1=O (stereo not shown) [Warfarin, reference compound] | – | – | – | – | – | – | – | – | – | – | – | – | – | – | – | – | recovery (Plasma binding of 5-MIAA; human plasma): 78.1%; fraction unbound (Plasma binding of 5-MIAA; read-out: Unbound fraction (fu), Replicate 1): 0.0418; fraction unbound (Plasma binding of 5-MIAA; read-out: Unbound fraction (fu), Replicate 2): 0.0356; fraction unbound (Plasma binding of 5-MIAA; read-out: Unbound fraction (fu), Replicate 3): 0.0358; fraction unbound (Plasma binding of 5-MIAA; three replicates, read-out: Mean fu): 0.0377
